Patent US20230085307A1, “PYRIDAZINONE COMPOUND AND HERBICIDE” (NISSAN CHEMICAL CORPORATION, priority 2019, published 2023)

What was measured:
wild oat [1] = assay: Test Example 5: herbicidal effect by foliage application, plastic box (Table 20, symbol I); assay type: in vivo, wild oat (Avena fatua); details: foliage application
Summary of the method: (§1)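 Post-emergence foliar test in sterilized diluvial soil. Compound applied as water-diluted emulsion at a predetermined rate to 14-day-old plants; evaluation at three weeks.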

rice flat sedge = assay: Test Example 3: herbicidal effect by foliage application, Wagner pot (Table 18, symbol E); assay type: in vivo, rice flat sedge (Cyperus iria); details: for herbicidal effect on E (rice flat sedge), rating 0-5: 320 g/ha; for herbicidal effect on E: rice flat sedge: amount of applied herbicide 320 g/ha
Summary of the method: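 Plants were sown in alluvial soil held under 0.1–0.5 cm standing water and grown 14 days in a greenhouse at 25–30 °C. An emulsifiable formulation, water-diluted to the set dose, was then sprayed onto the foliage, and effects were scored three weeks later using previously defined criteria.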

oval-leafed pondweed [2] = assay: Test Example 1: herbicidal activity, application before weed generation under submerged conditions (Table 16, symbol C); assay type: in vivo, oval-leafed pondweed (Monochoria vaginalis); details: 320 g/ha applied herbicide
Summary of the method: (§2)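 Submerged Wagner pots (alluvial soil, 4 cm water) sown with weed seeds and planted with 2.5-leaf rice seedlings; emulsifiable concentrate diluted in water applied to water surface on sowing day. Held in greenhouse at 25-30 °C; injury scored 0-5 by herbicidal rate after three weeks.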

chickweed [3] = assay: Test Example 5: herbicidal effect by foliage application, plastic box (Table 20, symbol P); assay type: in vivo, common chickweed (Stellaria media); details: foliage application
Summary of the method: as §1

oval-leafed pondweed [4] = assay: Test Example 2: herbicidal activity, application during weed generation under submerged conditions (Table 17, symbol C); assay type: in vivo, oval-leafed pondweed (Monochoria vaginalis); details: AAH 320 g/ha; application during weed generation, submerged conditions
Summary of the method: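 Steps: fill Wagner pots with alluvial soil; add water to give 4 cm depth; sow the species mixed; grow under glass at 25–30° C.; at 1–2 leaves apply water-diluted emulsion formulation to the water surface at a fixed herbicide amount; score after 3 weeks.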

redroot pigweed [5] = assay: Test Example 4: herbicidal effect by soil treatment (Table 19, symbol N); assay type: in vivo, redroot pigweed (Amaranthus retroflexus)
Summary of the method: (§3)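 Emulsion of test compound, water-diluted to predetermined amount, sprayed on soil after sowing (seed depth ~1.5 cm, sterilized diluvial soil). Greenhouse, 25–30° C. Effect graded at three weeks post-spray.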

green foxtail [6] = assay: Test Example 5: herbicidal effect by foliage application, plastic box (Table 20, symbol G); assay type: in vivo, green foxtail (Setaria viridis); details: foliage application
Summary of the method: as §1

wild oat [7] = assay: Test Example 4: herbicidal effect by soil treatment (Table 19, symbol I); assay type: in vivo, wild oat (Avena fatua)
Summary of the method: as §3

blackgrass = assay: Test Example 5: herbicidal effect by foliage application, plastic box (Table 20, symbol J); assay type: in vivo, blackgrass (Alopecurus myosuroides); details: foliage application
Summary of the method: as §1

barnyard grass [8] = assay: Test Example 5: herbicidal effect by foliage application, plastic box (Table 20, symbol H); assay type: in vivo, barnyard grass (Echinochloa crus-galli); details: foliage application
Summary of the method: as §1

chickweed [9] = assay: Test Example 4: herbicidal effect by soil treatment (Table 19, symbol P); assay type: in vivo, common chickweed (Stellaria media)
Summary of the method: as §3

velvetleaf = assay: Test Example 5: herbicidal effect by foliage application, plastic box (Table 20, symbol M); assay type: in vivo, velvetleaf (Abutilon theophrasti); details: foliage application
Summary of the method: as §1

Japanese bulrush = assay: Test Example 1: herbicidal activity, application before weed generation under submerged conditions (Table 16, symbol B); assay type: in vivo, Japanese bulrush (Schoenoplectus juncoides); details: 320 g/ha applied herbicide
Summary of the method: as §2

redroot pigweed [10] = assay: Test Example 5: herbicidal effect by foliage application, plastic box (Table 20, symbol N); assay type: in vivo, redroot pigweed (Amaranthus retroflexus); details: foliage application
Summary of the method: as §1

barnyard grass [11] = assay: Test Example 4: herbicidal effect by soil treatment (Table 19, symbol H); assay type: in vivo, barnyard grass (Echinochloa crus-galli)
Summary of the method: as §3

green foxtail [12] = assay: Test Example 4: herbicidal effect by soil treatment (Table 19, symbol G); assay type: in vivo, green foxtail (Setaria viridis)
Summary of the method: as §3

[13] = AAH 320 g/ha, three weeks after application
[14] = AAH 320 g/ha, evaluated three weeks after application
[15] = amount of applied herbicide 320 g/ha
[16] = 320 g/ha, evaluated three weeks after application

Structure (SMILES)	herbicidal effect on E (rice flat sedge), rating 0-5 (rice flat sedge)	Herbicidal effect on C: oval-leafed pondweed (grade 0-5) (oval-leafed pondweed [2])	herbicidal effect rating, C: oval-leafed pondweed (oval-leafed pondweed [4])	Herbicidal effect on B: Japanese bulrush (grade 0-5) (Japanese bulrush)	I: wild oat, herbicidal effect (criteria 0-5) (wild oat [1]; [14])	herbicidal effect on E: rice flat sedge (rice flat sedge)	P: chickweed, herbicidal effect (criteria 0-5) (chickweed [3]; [14])	herbicidal effect on N: redroot pigweed (redroot pigweed [5]; [15])	G: green foxtail, herbicidal effect (criteria 0-5) (green foxtail [6]; [14])	herbicidal effect on I: wild oat (wild oat [7]; [15])	J: blackgrass, herbicidal effect (criteria 0-5) (blackgrass; [14])	H: barnyard grass, herbicidal effect (criteria 0-5) (barnyard grass [8]; [14])	herbicidal effect on P: chickweed (chickweed [9]; [15])	M: velvetleaf, herbicidal effect (criteria 0-5) (velvetleaf; [14])	N: redroot pigweed, herbicidal effect (criteria 0-5) (redroot pigweed [10]; [14])	herbicidal effect on H: barnyard grass (barnyard grass [11]; [15])	herbicidal effect on G: green foxtail (green foxtail [12]; [15])	further results
C#CCOc1ccc(-c2sc3ccccc3c2-c2c(O)c(C)nn(C)c2=O)cc1 [1-136]	5 (Herbicidal rate of 90% or more (almost completely withered))	0 (Herbicidal rate of 5% or less (almost no effect))	0 (Herbicidal rate of 5% or less (almost no effect))	2 (Herbicidal rate of 20% or more and less than 40%)	–	–	–	–	–	–	–	–	–	–	–	–	–	I: wild oat, herbicidal effect (wild oat [1]; [13]): 0 (Herbicidal rate of 5% or less (almost no effect)); P: chickweed, herbicidal effect (chickweed [3]; [13]): 5 (Herbicidal rate of 90% or more (almost completely withered)); N: redroot pigweed, herbicidal effect rating (redroot pigweed [5]; AAH 320 g/ha): 4 (Herbicidal rate of 70% or more and less than 90%); G: green foxtail, herbicidal effect (green foxtail [6]; [13]): 5 (Herbicidal rate of 90% or more (almost completely withered)); I: wild oat, herbicidal effect rating (wild oat [7]; AAH 320 g/ha): 0 (Herbicidal rate of 5% or less (almost no effect)); J: blackgrass, herbicidal effect (blackgrass; [13]): 1 (Herbicidal rate of 5% or more and less than 20%); H: barnyard grass, herbicidal effect (barnyard grass [8]; [13]): 4 (Herbicidal rate of 70% or more and less than 90%); P: chickweed, herbicidal effect rating (chickweed [9]; AAH 320 g/ha): 1 (Herbicidal rate of 5% or more and less than 20%); M: velvetleaf, herbicidal effect (velvetleaf; [13]): 4 (Herbicidal rate of 70% or more and less than 90%); N: redroot pigweed, herbicidal effect (redroot pigweed [10]; [13]): 4 (Herbicidal rate of 70% or more and less than 90%); H: barnyard grass, herbicidal effect rating (barnyard grass [11]; AAH 320 g/ha): 4 (Herbicidal rate of 70% or more and less than 90%); G: green foxtail, herbicidal effect rating (green foxtail [12]; AAH 320 g/ha): 4 (Herbicidal rate of 70% or more and less than 90%)
Cc1nn(C)c(=O)c(-c2c(-c3ccc(Cl)cc3F)sc3ccc(F)cc23)c1O [2-348]	–	0 (Herbicidal rate of 5% or less (almost no effect))	0 (Herbicidal rate of 5% or less (almost no effect))	3 (Herbicidal rate of 40% or more and less than 70%)	5 (Herbicidal rate of 90% or more (almost completely withered))	5 (Herbicidal rate of 90% or more (almost completely withered))	5 (Herbicidal rate of 90% or more (almost completely withered))	3 (Herbicidal rate of 40% or more and less than 70%)	5 (Herbicidal rate of 90% or more (almost completely withered))	0 (Herbicidal rate of 5% or less (almost no effect))	4 (Herbicidal rate of 70% or more and less than 90%)	5 (Herbicidal rate of 90% or more (almost completely withered))	3 (Herbicidal rate of 40% or more and less than 70%)	5 (Herbicidal rate of 90% or more (almost completely withered))	5 (Herbicidal rate of 90% or more (almost completely withered))	3 (Herbicidal rate of 40% or more and less than 70%)	4 (Herbicidal rate of 70% or more and less than 90%)	–
CCCC(=O)Oc1c(C)nn(C)c(=O)c1-c1c(-c2ccc(OC)c(OC)c2)sc2ccc(F)cc12 [2-089]	5 (Herbicidal rate of 90% or more (almost completely withered))	4 (Herbicidal rate of 70% or more and less than 90%)	4 (Herbicidal rate of 70% or more and less than 90%)	4 (Herbicidal rate of 70% or more and less than 90%)	–	–	–	–	–	–	–	–	–	–	–	–	–	herbicidal effect on I: wild oat (wild oat [1]; [16]): 0 (Herbicidal rate of 5% or less (almost no effect)); herbicidal effect on P: chickweed (chickweed [3]; [16]): 5 (Herbicidal rate of 90% or more (almost completely withered)); herbicidal effect rating, N: redroot pigweed (redroot pigweed [5]; 320 g/ha): 4 (Herbicidal rate of 70% or more and less than 90%); herbicidal effect on G: green foxtail (green foxtail [6]; [16]): 5 (Herbicidal rate of 90% or more (almost completely withered)); herbicidal effect rating, I: wild oat (wild oat [7]; 320 g/ha): 0 (Herbicidal rate of 5% or less (almost no effect)); herbicidal effect on J: blackgrass (blackgrass; [16]): 0 (Herbicidal rate of 5% or less (almost no effect)); herbicidal effect on H: barnyard grass (barnyard grass [8]; [16]): 4 (Herbicidal rate of 70% or more and less than 90%); herbicidal effect rating, P: chickweed (chickweed [9]; 320 g/ha): 3 (Herbicidal rate of 40% or more and less than 70%); herbicidal effect on M: velvetleaf (velvetleaf; [16]): 5 (Herbicidal rate of 90% or more (almost completely withered)); herbicidal effect on N: redroot pigweed (redroot pigweed [10]; [16]): 4 (Herbicidal rate of 70% or more and less than 90%); herbicidal effect rating, H: barnyard grass (barnyard grass [11]; 320 g/ha): 4 (Herbicidal rate of 70% or more and less than 90%); herbicidal effect rating, G: green foxtail (green foxtail [12]; 320 g/ha): 5 (Herbicidal rate of 90% or more (almost completely withered))
CCCC(=O)Oc1c(C)nn(C)c(=O)c1-c1c(-c2ccc(OC3CC3)cc2)sc2ccc(F)cc12 [2-218]	–	5 (Herbicidal rate of 90% or more (almost completely withered))	3 (Herbicidal rate of 40% or more and less than 70%)	5 (Herbicidal rate of 90% or more (almost completely withered))	–	5 (Herbicidal rate of 90% or more (almost completely withered))	–	–	–	–	–	–	–	–	–	–	–	herbicidal effect on I: wild oat (criteria 0-5) (wild oat [1]; [16]): 3 (Herbicidal rate of 40% or more and less than 70%); herbicidal effect on P: chickweed (criteria 0-5) (chickweed [3]; [16]): 5 (Herbicidal rate of 90% or more (almost completely withered)); N: redroot pigweed, herbicidal effect rating (redroot pigweed [5]; [15]): 1 (Herbicidal rate of 5% or more and less than 20%); herbicidal effect on G: green foxtail (criteria 0-5) (green foxtail [6]; [16]): 2 (Herbicidal rate of 20% or more and less than 40%); I: wild oat, herbicidal effect rating (wild oat [7]; [15]): 0 (Herbicidal rate of 5% or less (almost no effect)); herbicidal effect on J: blackgrass (criteria 0-5) (blackgrass; [16]): 1 (Herbicidal rate of 5% or more and less than 20%); herbicidal effect on H: barnyard grass (criteria 0-5) (barnyard grass [8]; [16]): 4 (Herbicidal rate of 70% or more and less than 90%); P: chickweed, herbicidal effect rating (chickweed [9]; [15]): 1 (Herbicidal rate of 5% or more and less than 20%); herbicidal effect on M: velvetleaf (criteria 0-5) (velvetleaf; [16]): 5 (Herbicidal rate of 90% or more (almost completely withered)); herbicidal effect on N: redroot pigweed (criteria 0-5) (redroot pigweed [10]; [16]): 2 (Herbicidal rate of 20% or more and less than 40%); H: barnyard grass, herbicidal effect rating (barnyard grass [11]; [15]): 0 (Herbicidal rate of 5% or less (almost no effect)); G: green foxtail, herbicidal effect rating (green foxtail [12]; [15]): 0 (Herbicidal rate of 5% or less (almost no effect))
C=CCSCc1ccc(-c2sc3ccc(F)cc3c2-c2c(O)c(C)nn(C)c2=O)cc1 [2-323]	–	0 (Herbicidal rate of 5% or less (almost no effect))	0 (Herbicidal rate of 5% or less (almost no effect))	2 (Herbicidal rate of 20% or more and less than 40%)	3 (Herbicidal rate of 40% or more and less than 70%)	3 (Herbicidal rate of 40% or more and less than 70%)	5 (Herbicidal rate of 90% or more (almost completely withered))	5 (Herbicidal rate of 90% or more (almost completely withered))	5 (Herbicidal rate of 90% or more (almost completely withered))	0 (Herbicidal rate of 5% or less (almost no effect))	4 (Herbicidal rate of 70% or more and less than 90%)	4 (Herbicidal rate of 70% or more and less than 90%)	1 (Herbicidal rate of 5% or more and less than 20%)	5 (Herbicidal rate of 90% or more (almost completely withered))	5 (Herbicidal rate of 90% or more (almost completely withered))	0 (Herbicidal rate of 5% or less (almost no effect))	3 (Herbicidal rate of 40% or more and less than 70%)	–
